# From article PMC4644822, “Extracellular α-Galactosidase from Trichoderma sp. (WF-3): Optimization of Enzyme Production and Biochemical Characterization” (Biotechnology Research International, 2015)
# System: T1, extracellular α-galactosidase from Trichoderma sp. (WF-3)
# T1 construct: gene agl1; native secreted enzyme, unpurified culture filtrate
# Test: p-nitrophenol release at […] nm, Lineweaver-Burk plot
# Assay type: biochemical
# Details: culture filtrate (unpurified); standard assay 0.05 M sodium acetate pH 5.0, 50 °C, 10 min; 0.05-4.5 mM substrate; read-out: apparent K m
smiles,measurement,value
"O=[N+]([O-])c1ccc(O[C@H]2O[C@H](CO)[C@H](O)[C@H](O)[C@H]2O)cc1 [pNPGal, p-nitrophenyl-α-D-galactopyranoside]",Km,500 µM
